Our source for the IC50 values is PubChem BioAssay AID1645868 (Buhrlage Lab, Dana-Farber Cancer Institute and Novartis …, 2021).

The target in the assay is OTU domain-containing protein 3 (Homo sapiens) (UniProt Q5T2D3). Kind of assay: Validation of screening hits, potency titration, in vitro enzymatic, OTU domain-containing protein 3 DUB inhibitors (AID 1645868). The note with it: purified OTUD3, ubiquitin-rhodamine cleavage fluorescence, 2 h.

The structures appear in SMILES notation. The source made the active and inactive calls.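 The calls were made as follows: active = maximal percent inhibition of the deubiquitinase OTUD3 of at least 30% across the tested doses; inactive = the rest.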 Bounds are passed on as bounds.

OTU domain-containing protein 3 (Homo sapiens), sequence (Q5T2D3 whole entry, looked up, the tested form may be a part): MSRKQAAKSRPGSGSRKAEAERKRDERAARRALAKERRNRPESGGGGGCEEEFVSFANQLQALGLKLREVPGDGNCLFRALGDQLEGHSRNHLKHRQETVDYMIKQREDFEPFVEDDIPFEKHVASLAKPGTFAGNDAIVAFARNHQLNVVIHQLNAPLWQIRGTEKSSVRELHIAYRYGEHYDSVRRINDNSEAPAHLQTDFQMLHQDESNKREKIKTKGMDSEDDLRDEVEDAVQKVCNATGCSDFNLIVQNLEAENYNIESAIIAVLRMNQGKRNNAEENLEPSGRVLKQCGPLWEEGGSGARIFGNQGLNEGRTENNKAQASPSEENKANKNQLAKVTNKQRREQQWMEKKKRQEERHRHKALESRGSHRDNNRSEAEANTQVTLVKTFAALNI

Regarding `Cc1ccc(NC(=O)c2c3c(nc4ccccc24)CCCCC3)c(C)c1`, the IC50 was > 50 µM (inactive).

Take `Cc1ccc(NC(=O)Cc2nnc3cc(-c4nc(C)no4)ccn23)cc1`: the IC50 is 21.8 µM.

In the case of `NS(=O)(=O)c1cc(C(=O)OCC(=O)c2ccc3c(c2)OCCO3)ccc1Cl`, the IC50 is > 50 µM (inactive).

Regarding `Cc1ccc(NC(=O)c2ccn(COc3ccc(F)cc3)n2)nc1`, the IC50 is > 50 µM (inactive).

On to `CC(CCc1ccccc1)NC(=O)Cn1c(=O)c2cccn2c2ccccc21` (centres undefined), for which the IC50 is 33.5 µM.

As to `Cc1ccc([N+](=O)[O-])cc1S(=O)(=O)Nc1cc2sc(=O)oc2c2ccccc12`, the IC50 was 35.9 µM.

With `Cc1ccc(NC(=O)c2nnn(-c3ccccc3Br)c2C)cc1C`, the IC50 was > 50 µM (inactive).

As to `FC(F)(F)c1ccccc1CCN1CCc2nc3ccc(Cl)cc3cc2C1`, the IC50 is > 50 µM (inactive).

In the case of `O=c1[nH]c2ccc(S(=O)(=O)Nc3ccc(O)c4ccccc34)cc2[nH]1`, the IC50 is > 50 µM (inactive).

As for `COc1ccc(CCn2cnc3c4ccccc4n(C)c3c2=O)cc1OC`, the IC50 was > 50 µM (inactive).

Take `CC1CC(=O)Nc2ccccc2N1S(=O)(=O)c1ccc(C#N)cc1` (centres undefined): the IC50 was > 50 µM (inactive).

Consider `Cc1nnc(NC(=O)C2CCN(c3ccc(S(N)(=O)=O)cc3[N+](=O)[O-])CC2)o1`, for which the IC50 is 15.6 µM.

For the compound `CCOc1ccc(-n2c(C)cc(/C=C(\C#N)c3nc4ccccc4[nH]3)c2C)cc1`, the IC50 is > 50 µM (inactive).

For `COc1cc(C(=O)OCc2csc(-c3ccccc3)n2)ccc1OCC(=O)Nc1ccc(F)cc1`, the IC50 is > 50 µM (inactive).

For the compound `O=C(NC1CCS(=O)(=O)C1)c1ccc(N2CCC(Cc3ccccc3)CC2)nn1` (centres undefined), the IC50 is > 50 µM (inactive).

On to `CN(C(=O)c1ccncc1)[C@H]1CC[C@@]2(C)C[C@H](c3ccccc3)C[C@](C)(O2)[C@@H]1O`, for which the IC50 is > 50 µM (inactive).

Regarding `Cc1ccc(-n2nc(C)c3c2NC(=O)CC3C(=O)c2cc3ccccc3o2)cc1C` (centres undefined), the IC50 is > 50 µM (inactive).

For the compound `Fc1ccc(Cn2ccc(-c3cnc(-c4ccccc4)s3)n2)cc1`, the IC50 is > 50 µM (inactive).

Turning to `COc1ccc(C(=O)NCCc2nnc3ccc(SCC(=O)NCc4ccc(F)cc4)nn23)cc1`, the IC50 is 26.2 µM.

Consider `CO/C1=C\C(C)=C/[C@@H](C)[C@@H](O)[C@@H](C)C/C(C)=C/C=C/[C@H](OC)[C@@H]([C@@H](C)[C@@H](O)[C@H](C)[C@@]2(O)C[C@@H](OC(=O)/C=C/C(N)=O)[C@H](C)[C@@H](C(C)C)O2)OC1=O`, for which the IC50 is > 50 µM (inactive).

In the case of `COc1cccc(NC(=O)c2ccc(F)cc2Cl)c1`, the IC50 is > 50 µM (inactive).

In the case of `O=c1[nH]c(C2CCN(S(=O)(=O)c3ccc(S(=O)(=O)NC4CCCCC4)cc3)CC2)nc2c1nnn2Cc1c(Cl)cccc1Cl`, the IC50 was 18.5 µM.

Take `O=C(CNS(=O)(=O)c1ccc(F)cc1)N1CCCC(c2nnc3ccccn23)C1` (centres undefined): the IC50 is > 50 µM (inactive).

`COc1ccc(Nc2nc(C(=O)NCc3ccccc3)cc3occc23)cc1`: the IC50 is > 50 µM (inactive).

`O=C(NC1CCN(Cc2ccccc2)CC1)c1[nH]nc2c1CCc1ccccc1-2`: the IC50 is > 50 µM (inactive).

Take `CCCCNc1nc2c(-c3ccccc3)nnn2c2ccccc12`: the IC50 is > 50 µM (inactive).

Turning to `O=S(=O)(O)c1cc2cc3ccccc3cc2[nH]1`, the IC50 was > 50 µM (inactive).

Take `CC(C)CC(=O)Nc1cc(F)c2nc(N3CCOCC3)ccc2c1`: the IC50 was > 50 µM (inactive).

Take `COc1cccc(-n2c(=O)[nH]c3c(C(N)=O)nc(-c4ccc(OCc5ccccc5)cc4)nc32)c1`: the IC50 is > 50 µM (inactive).

For the compound `O=C(NCCc1ccco1)c1ccc(N2CCOc3ccccc32)s1`, the IC50 is 28.4 µM.

Consider `N#Cc1ccc(COC(=O)c2ccc3ccccc3n2)cc1`, for which the IC50 was > 50 µM (inactive).

For the compound `COc1ccc(CNC(=O)CN2C(=O)CC(c3ccccc3)=Nc3ccccc32)cc1`, the IC50 is 16.4 µM.

As for `O=C(NCC(c1cccnc1)N1CCc2ccccc2C1)C(=O)Nc1ccc2c(c1)OCO2` (centres undefined), the IC50 is 37.7 µM.

On to `Cc1cc(=O)n(CC(=O)Nc2ccccc2C)c(Nc2ccc(F)cc2)n1`, for which the IC50 is 23.3 µM.

Turning to `COc1ccc(CCC(=O)Nc2ccc3c(c2)Sc2ncccc2C(=O)N3C)cc1`, the IC50 was > 50 µM (inactive).

In the case of `Cc1ccc(NC(=O)/C=C/c2cccc(C(F)(F)F)c2)c(O)c1`, the IC50 was 30.5 µM.

Turning to `Cc1ccc(NC(=O)c2cnc3c(c2)c(=O)n(C)c(=O)n3C)cc1`, the IC50 is 20 µM.

For `CSc1ccccc1C(=O)Nc1sc2c(c1C(N)=O)CCC(C)C2` (centres undefined), the IC50 is 22.1 µM.

On to `CC(C(=O)NCc1ccc(F)cc1)n1cccc1C(=O)c1ccccc1` (centres undefined), for which the IC50 was > 50 µM (inactive).

Consider `COc1ccc(-c2cc(C(C)=O)c(C)n2CCC(=O)Nc2ccc(OC)cc2OC)cc1`, for which the IC50 is > 50 µM (inactive).

As for `COc1ccc(Cn2cnc3c([nH]c4ccc(Br)cc43)c2=O)cc1`, the IC50 is > 50 µM (inactive).

As for `O=C(Nc1cccc(C(F)(F)F)c1)N1CCCn2c(nc3ccccc32)C1`, the IC50 was 37.6 µM.

In the case of `Cc1cc(C#N)c2c(C)ccc(C(C)C)cc1-2`, the IC50 was > 50 µM (inactive).

Regarding `Cc1cc(O)c2c3c(c(O)cc2c1)C(=O)c1c(O)cccc1C3=O`, the IC50 was 4.84 µM.

Take `O=C1COc2ccc(NC(=O)c3cnn(Cc4ccccc4)c3)cc2N1`: the IC50 is > 50 µM (inactive).

With `O=C(COc1ccccc1-c1nnc(-c2ccccc2)o1)Nc1ccc(F)cc1F`, the IC50 was 39.4 µM.

Consider `CC(C)(C)C(=O)Nc1ccc(C(=O)Nc2cccc(-c3nnc(-c4ccccc4)o3)c2)cc1`, for which the IC50 was 16.8 µM.

Take `COCCCNC(=O)Cn1c(=O)n(Cc2ccc(C(=O)NCc3ccccc3OC)cc2)c(=O)c2ccccc21`: the IC50 was > 50 µM (inactive).

On to `O=C(C1CCCN(S(=O)(=O)N2CCCCCC2)C1)N1CCN(c2ccccc2)CC1` (centres undefined), for which the IC50 was > 50 µM (inactive).

On to `COc1cccc(/C=C/c2nc(C#N)c(N3CCN(C(=O)c4cccs4)CC3)o2)c1`, for which the IC50 is > 50 µM (inactive).

Regarding `O=C(CCCn1c(=O)[nH]c2cc(Cl)ccc2c1=O)N1CCc2ccccc2C1`, the IC50 is 29 µM.

On to `Cc1ccccc1Cn1ccc2ccn(Cc3cccnc3)c2c1=O`, for which the IC50 was > 50 µM (inactive).

In the case of `O=C(O)c1ccccc1C(=O)Nc1ccc(SC(C(=O)Nc2ccccc2)c2ccccc2)cc1` (centres undefined), the IC50 was > 50 µM (inactive).

For the compound `COc1cc(NC(=O)c2cc(-c3ccncc3)n(-c3ccc(F)cc3)n2)cc(OC)c1`, the IC50 is > 50 µM (inactive).

As for `Cc1cccc(-n2cnc(C(=O)NCc3ccc(F)cc3)c2)n1`, the IC50 is > 50 µM (inactive).

Regarding `COc1cc(O)c2c(c1)C1=CC(=O)C(O)=C[C@]1(C)OC2=O`, the IC50 is 29.9 µM.

For the compound `Cc1cc(C)cc(N(CCC(=O)Nc2ccc(N3CCOCC3)cc2)S(=O)(=O)c2ccc(Cl)cc2)c1`, the IC50 was 19.7 µM.

Regarding `CCOC(=O)c1cc2c(ccn2C)n1CC(=O)N1CCC(C)CC1`, the IC50 was > 50 µM (inactive).

On to `O=C(Nc1ccc2c(c1)OCO2)c1[nH]nc2c1CCc1ccccc1-2`, for which the IC50 was > 50 µM (inactive).

As for `Cc1ccccc1C(=O)Nc1ccc(Cc2ccc(NC(=O)c3ccccc3C)c(O)c2)cc1O`, the IC50 was > 50 µM (inactive).

As for `COc1ccc(C(=O)CSc2nnc(-c3cc4cccc(OC)c4o3)n2C)cc1OC`, the IC50 is > 50 µM (inactive).

For `Cc1ccc(CSC2=NS(=O)(=O)c3ccccc3N2)cc1`, the IC50 is > 50 µM (inactive).

In the case of `Cc1cccc(C(=O)NCc2nc3ccccc3n2Cc2ccccc2C)c1`, the IC50 is > 50 µM (inactive).

For `COc1ccc(CCNC(=O)[C@H](CCSC)NC(=O)N2CCn3c2nc2ccccc23)cc1OC`, the IC50 was > 50 µM (inactive).

Take `CC(=O)C1=C(O)[C@]2(O)C(=O)c3c(c(C)c4ccc(C)c(O)c4c3O)C[C@H]2[C@@H](N)C1=O`: the IC50 was 2.13 µM.

In the case of `CCCc1nc2sc3c(NC4CCCCC4)ncnc3c2c2c1CCC2`, the IC50 is > 50 µM (inactive).

Consider `Cc1nc(Nc2ncc(C)s2)cc(C2CN(C(=O)Cc3ccccc3)CCO2)n1` (centres undefined), for which the IC50 is > 50 µM (inactive).

For `Cc1ccccc1NC(=O)C(C)n1c(=O)cc(-c2ccccc2)c2c(C)nn(C)c21` (centres undefined), the IC50 was 38 µM.

Turning to `O=C(c1ccco1)N1CCN=C1SCc1ccccc1F`, the IC50 was > 50 µM (inactive).

`O=c1c2cc([N+](=O)[O-])ccc2nc(CN2CCN(c3ccccn3)CC2)n1-c1ccccc1F`: the IC50 was > 50 µM (inactive).

Take `O=C(Oc1ccc(-c2cnc3ccccc3n2)cc1)c1ccc(F)cc1`: the IC50 was > 50 µM (inactive).

With `COCCCN1CCS(=O)(=O)c2c(Cl)c(F)nc(Oc3ccccc3F)c21`, the IC50 is > 50 µM (inactive).

In the case of `Cc1nn(-c2ccc(Cl)cc2)c2[nH]c(=O)c(CNCC3CCCO3)cc12` (centres undefined), the IC50 is > 50 µM (inactive).

Consider `CCC(=O)Nc1ccccc1-c1nc2ccccc2n(CC(=O)Nc2cc(OC)ccc2OC)c1=O`, for which the IC50 was 19 µM.

For the compound `CCc1cc(C(=O)c2ccc(OC)cc2)c(NC(=O)CN2CCCCC2)s1`, the IC50 is > 50 µM (inactive).

For `O=c1c2ccccc2ncn1C1CCN(S(=O)(=O)c2ccccc2F)CC1`, the IC50 was > 50 µM (inactive).

`CCC(C)c1ccc(-c2csc(Cn3c(CN4CCN(C)CC4)nc4ccccc4c3=O)n2)cc1` (centres undefined): the IC50 was 31.8 µM.

For `COc1ccc(CCN2COc3c(cc(Cl)c4cccnc34)C2)cc1OC`, the half-maximal inhibitory concentration (IC50) is 21.7 µM.

Consider `Cc1cc(C)c2c(-n3cccc3)c(C(=O)NCCc3ccc(S(N)(=O)=O)cc3)sc2n1`, for which the IC50 is > 50 µM (inactive).

On to `Cc1cc(=O)oc2cc(OCC(=O)Nc3cc(Cl)ccc3N3CCOCC3)ccc12`, for which the IC50 was > 50 µM (inactive).

As for `CC(C)N(C(=O)Cn1c(=O)[nH]c2ccccc21)c1ccccc1`, the IC50 was > 50 µM (inactive).

In the case of `CN1C(=O)COc2cc(-c3noc(C(=O)NC4CCCCCC4)n3)ccc21`, the IC50 is > 50 µM (inactive).

As to `O=C(NC1CC1)c1ccnn1-c1ccc2ccc(-c3ccncc3)cn12`, the IC50 was > 50 µM (inactive).

As to `CCn1cc(-c2nc(-c3ccccn3)no2)c(=O)c2cc(F)ccc21`, the IC50 was > 50 µM (inactive).

Usually IC50 stands for the concentration needed to halve the response being measured.
